Results as given in US20060276340A1, “HERBICIDE COMPOSITION COMPRISING PYRIBAMBENZ-PROPYL OR PYRIBAMBENZ-ISOPROPYL” (Zhejiang Chem-Tech Group Co., Ltd., priority 2003, published 2006).
Entries after “also recorded” stand apart in the source; their conditions may differ.

Legend:
Type in all cases: in vivo
Alopecurus aequalis [1] = test: greenhouse pot test, Tables 1-2
Method: (§1) The test soil is a formulated sandy loam soil. 9.5 centimeter diameter pots are used for herbicidal activity test.
(§2) The soil in the pot for the pre-emergence test was sprayed one day after planting. The preparation liquid for the treatment prepared by mixing individual single-herbicides was diluted with water to the desired dosage.
(§3) The pots for post-emergence treatment are placed into a greenhouse and incubated for 7 to 9 days, and then subjected to leave treatment by spraying. The preparation liquid for the treatment prepared by mixing individual single-herbicides was diluted with water to the desired dosage.
(§4) The treated pots stood for one day, then were placed in a greenhouse and watered regularly. The herbicidal activities of the compositions were evaluated by visual examination after incubating for 14 to 21 days.
(§5) The herbicidal activities of the compositions were evaluated by plant symptoms such as stunting, deformity, chlorosis, and whitening. 0 represents that the compositions have no herbicidal effect or have safety to crops. 100 represents that the weeds or crops were completely killed.

Beckmannia syzigachne [2] = test: greenhouse pot test, Tables 1-2; conditions: BECSY 2 leaves
Method: as §1, §2, §3, §4, §5

Digitrria sanguinalis = test: greenhouse pot test, Tables 1-2; conditions: DIGSA 3 leaves
Method: as §1, §2, §3, §4, §5

Poa annua [3] = test: greenhouse pot test, Tables 1-2; conditions: POAAN 3 leaves
Method: as §1, §2, §3, §4, §5

Polypogon fugax [4] = test: greenhouse pot test, Tables 1-2; conditions: POLFU 3-4 leaves
Method: as §1, §2, §3, §4, §5

Alopecurus aequalis [5] = test: greenhouse pot test, post-emergence treatment; conditions: ALOAE 3 leaves
Method: as §1, §3, §4, §5

Alopercurus japonicus [6] = test: greenhouse pot test, post-emergence treatment; conditions: ALOJA
Method: as §1, §3, §4, §5

Cerastium arvense [7] = test: greenhouse pot test, post-emergence treatment; conditions: CERAR 6 leaves
Method: as §1, §3, §4, §5

Galium aparine [8] = test: greenhouse pot test, post-emergence treatment
Method: as §1, §3, §4, §5

Poa annua [9] = test: greenhouse pot test, post-emergence treatment; conditions: POAAN
Method: as §1, §3, §4, §5

Polypogon fugax [10] = test: greenhouse pot test, post-emergence treatment; conditions: POLFU 4˜4.5 leaves
Method: as §1, §3, §4, §5

Veronica didyma = test: greenhouse pot test, post-emergence treatment; conditions: VERDI
Method: as §1, §3, §4, §5

Alopercurus japonicus [11] = test: greenhouse pot test, post-emergence early stage treatment; conditions: ALOJA
Method: as §1, §3, §4, §5

Beckmannia syzigachne [12] = test: as above; conditions: BECSY 2˜3 leaves
Method: as §1, §3, §4, §5

Cerastium arvense [13] = test: as above
Method: as §1, §3, §4, §5

Galium aparine [14] = test: as above
Method: as §1, §3, §4, §5

Poa annua [15] = test: as above
Method: as §1, §3, §4, §5

weeds in rape field = test: weed control in rape field, descriptive statements
rape = test: safety to crops
Method: The herbicidal activities of the compositions were evaluated by plant symptoms such as stunting, deformity, chlorosis, and whitening. 0 represents that the compositions have no herbicidal effect or have safety to crops. 100 represents that the weeds or crops were completely killed. [table]

With `COc1cc(OC)nc(Oc2ccccc2CNc2ccc(C(=O)OC(C)C)cc2)n1` [Pyribambenz-isopropyl, iso-propyl 4-({2-[(4,6-dimethoxypyrimidin-2-yl)oxy]benzyl}amino)benzoate] the “visual evaluation of weed effects” value (Alopecurus aequalis [1]; ALOAE 0 leaf, 30 g/ha) was 90%, the “visual evaluation of weed effects” value (Alopecurus aequalis [1]; ALOAE 0 leaf, 45 g/ha) was 90% and the “visual evaluation of weed effects” value (Alopecurus aequalis [1]; ALOAE 3 leaves, 30 g/ha) was 100%. The “visual evaluation of weed effects” value (Alopecurus aequalis [1]; ALOAE 3 leaves, 45 g/ha) was 100%, the “visual evaluation of weed effects” value (Beckmannia syzigachne [2]; 30 g/ha) was 30% and the “visual evaluation of weed effects” value (Beckmannia syzigachne [2]; 45 g/ha) was 30%. For the same molecule, the “visual evaluation of weed effects” value (Digitrria sanguinalis; 30 g/ha) was 60%, the “visual evaluation of weed effects” value (Digitrria sanguinalis; 45 g/ha) was 80% and the “visual evaluation of weed effects” value (Poa annua [3]; 30 g/ha) was 60%. For the same molecule, the “visual evaluation of weed effects” value (Poa annua [3]; 45 g/ha) was 90%, the “visual evaluation of weed effects” value (Polypogon fugax [4]; 30 g/ha) was 80% and the “visual evaluation of weed effects” value (Polypogon fugax [4]; 45 g/ha) was 80%. For the same molecule, the “visual evaluation of weed effects” value (Alopecurus aequalis [5]; 30 g/ha) was 80%, the “visual evaluation of weed effects” value (Alopecurus aequalis [5]; 45 g/ha) was 90% and the “visual evaluation of weed effects” value (Alopercurus japonicus [6]; 30 g/ha) was 85%. For the same molecule, the “visual evaluation of weed effects” value (Alopercurus japonicus [6]; 45 g/ha) was 90%, the “visual evaluation of weed effects” value (Cerastium arvense [7]; 30 g/ha) was 50% and the “visual evaluation of weed effects” value (Cerastium arvense [7]; 45 g/ha) was 60%. For the same molecule, the “visual evaluation of weed effects” value (Galium aparine [8]; GALAP 7˜8 leaves, 30 g/ha) was 0%, the “visual evaluation of weed effects” value (Galium aparine [8]; GALAP 7˜8 leaves, 45 g/ha) was 0% and the “visual evaluation of weed effects” value (Galium aparine [8]; GALAP, 30 g/ha) was 20%. For the same molecule, the “visual evaluation of weed effects” value (Galium aparine [8]; GALAP, 45 g/ha) was 20%, the “visual evaluation of weed effects” value (Poa annua [9]; 30 g/ha) was 85% and the “visual evaluation of weed effects” value (Poa annua [9]; 45 g/ha) was 90%. The “visual evaluation of weed effects” value (Polypogon fugax [10]; 30 g/ha) was 50%, the “visual evaluation of weed effects” value (Polypogon fugax [10]; 45 g/ha) was 60% and the “visual evaluation of weed effects” value (Veronica didyma; 30 g/ha) was 20%. The “visual evaluation of weed effects” value (Veronica didyma; 45 g/ha) was 30%, the “visual evaluation of weed effects” value (Alopercurus japonicus [11]; 30 g/ha) was 90% and the “visual evaluation of weed effects” value (Alopercurus japonicus [11]; 45 g/ha) was 90%. The “visual evaluation of weed effects” value (Beckmannia syzigachne [12]; 30 g/ha) was 50%, the “visual evaluation of weed effects” value (Beckmannia syzigachne [12]; 45 g/ha) was 70% and the “visual evaluation of weed effects” value (Cerastium arvense [13]; CERAR 3˜4 leaves, 30 g/ha) was 40%. For the same molecule, the “visual evaluation of weed effects” value (Cerastium arvense [13]; CERAR 3˜4 leaves, 45 g/ha) was 60%, the “visual evaluation of weed effects” value (Cerastium arvense [13]; CERAR, 30 g/ha) was 80% and the “visual evaluation of weed effects” value (Cerastium arvense [13]; CERAR, 45 g/ha) was 90%. For the same molecule, the “visual evaluation of weed effects” value (Galium aparine [14]; GALAP 7˜8 leaves, 30 g/ha) was 0%, the “visual evaluation of weed effects” value (Galium aparine [14]; GALAP 7˜8 leaves, 45 g/ha) was 10% and the “visual evaluation of weed effects” value (Galium aparine [14]; GALAP, 30 g/ha) was 30%. For the same molecule, the “visual evaluation of weed effects” value (Galium aparine [14]; GALAP, 45 g/ha) was 50%, the “visual evaluation of weed effects” value (Poa annua [15]; POAAN 2˜3 leaves, 30 g/ha) was 80% and the “visual evaluation of weed effects” value (Poa annua [15]; POAAN 2˜3 leaves, 45 g/ha) was 95%. The “visual evaluation of weed effects” value (Poa annua [15]; POAAN, 30 g/ha) was 95%, the “visual evaluation of weed effects” value (Poa annua [15]; POAAN, 45 g/ha) was 98% and the weed control (weeds in rape field; Alopecurus aequalis, Alopecurus japonicus, Stellaria aquatica, Stallaria media and Atellaria alsine) was “high-effectively control; also recorded: effective weed control”. The effectiveness of control (weeds in rape field; second important weeds in rape field: Poa annua, sclerochloa kengiana, Beckmannia syzigachne, Polypogon fugax, broadleaf Cardlamine hirsuta, Galium aparine, Lapsana apogonoides, Hemistepta lyrata) was “moderate”, the “selectivity between rape and weeds” value (rape; in vivo) was “good selectivity” and the safety to crops (rape; rape / objective crops) was “safety toward rape”.
